Measurements from patent US8623661B2, “Iron chelating agent, method for producing same, method for determining amount of iron ions and method for trapping iron ions” (National University Corporation Asahikawa Medical College, priority 2008, dated 2014).

Experiments:
[1] = test system: iron nitrilotriacetate complex (Fe-NTA); assay: Evaluation C: chelating ability in MOPS/acetonitrile solvent, Fe-NTA solution; type: binding
Experimental: Evaluation was carried out by the following evaluation method C as to whether or not the iron chelating agent according to Examples 1 to 3 had chelating ability with iron in 3-morpholinopropanesulfonic acid (C7H15NO4S;MOPS) and acetonitrile solution as solvents used in high performance liquid chromatography (HPLC).
2.09 g of morpholinopropanesulfonic acid (C7H15NO4S; FW=209.26, Code 341-01801, Lot PX013, manufactured by Dojindo/Wako Corporation) was added to a 100 mL Erlenmeyer flask, 80 mL of ultrapure water (pure water produced by an ultrapure water production system manufactured by Millipore Corporation (Milli-Q); “Milli-Q water”) was added thereto and dissolved [pH 4.15 (24.4° C.)]. To this solution, 1N sodium hydroxide solution (1 mol/1 sodium hydroxide solution, Code 192-02175, Lot SEP7274, manufactured by Wako Pure Chemicals Industries) was added in 100 μl portions, the pH was adjusted to 7.0 and further Milli-Q water was made up to 100 mL in a measuring cylinder, whereby 100 mL of MOPS solution (pH 6.99) was prepared.
An iron chelating agent solution having an iron chelating agent concentration of 50 mM was prepared with respect to the iron chelating agent according to Examples 1 to 3, in the same manner as the preparation method of the iron chelating solution in evaluation A of the iron chelating agent.
Further, 100 mM of MOPS solution (pH6.99) prepared by the preparation method of the MOPS solution was used.
Furthermore, a stock solution of acetonitrile (C2H3N, FW=41.05, Code 347-06641, Lot WPI96, manufactured by Dojindo/Wako corporation) was used.
13.8 mL of Milli-Q water was taken in a 50 mL conical tube, 1.2 mL of each of the iron chelating agent solutions (Fe-Ser•Na (50 mM), Fe-His•Na (50 mM), Fe-Glu•Na (50 mM)) according to the iron chelating agents of Examples 1 to 3 was added, 1.0 mL of 100 mM MOPS solution was added thereto, and a further 4.0 mL of acetonitrile solution was added to produce an iron chelating solution using MOPS. The iron chelating agent solutions using MOPS and iron chelating agent according to Examples 1 to 3 were defined respectively as Fe-Ser•Na (MOPS solution)” (iron chelating agent according to
Example 1), “Fe-His•Na (MOPS solution)” (iron chelating agent according to Example 2), and “Fe-Glu•Na(MOPS solution)” (iron chelating agent according to Example 3).
Further, iron nitrilotriacetate complex solution (“Fe-NTA solution (20 mM)”) having a concentration of iron ions of 20 mM and iron nitrilotriacetate complex solution (“Fe-NTA solution (2 mM)”) having a concentration of iron ions of 2 mM were prepared, in the same manner as the preparation method of iron nitrilotriacetate complex solution in evaluation B of the iron chelating agent.
Further, Fe-NTA solution (20 mM) was added to and mixed with each of the iron chelating agent solutions [Fe-Ser•Na (MOPS solution), Fe-His•Na (MOPS solution), Fe-Glu•Na (MOPS solution)] using MOPS. […] Further, Fe-NTA solution (2 mM) was added and mixed thereto as described above.

[2] = test system: iron nitrilotriacetate complex (Fe-NTA); assay: Evaluation B: chelating ability with iron, absorbance after adding chelating agent to iron nitrilotriacetate complex (Fe-NTA) solution; type: binding; conditions: for [B] absorbance after addition of iron chelating agent / [B]-[A]: 470 nm; for [B]-[A]: minus blank
Experimental: Evaluation was carried out by the following evaluation method B as to whether the iron chelating agent according to Example 1 had chelating ability with iron.
An iron chelating agent solution (Fe-Ser•Na (50 mM)) having an iron chelating agent concentration of 50 mM was prepared in the same manner as the preparation method of the iron chelating agent solution in evaluation method A of the iron chelating agent.
Ferric chloride-6 hydrate FeCl3.6H2O (MW270.30) crystals were dissolved in Milli-Q water to prepare an 80 mM solution (A liquid). Meanwhile, 160 mM of nitrilotriacetic acid solution (B liquid) was prepared by dissolving crystals of the free salt of NTA (191.14) in 6N hydrochloric acid. 10 mL of A liquid and 10 mL of B liquid was taken in a beaker, and sodium hydrogen carbonate NaHCO3 crystals were added bit by bit while stirring slowly. When gas generation was suppressed and the solution changed to a dark green color, the addition of NaHCO3 was completed. Finally, iron nitrilotriacetate complex solution “Fe-NTA solution (20 mM)” having an iron ion concentration of 20 mM made up to 40 mL was prepared.
Further, 1×D-PBS (pH 7.2) was added to Fe-NTA solution (20 mM) to prepare an iron nitrilotriacetate complex solution having a concentration of iron ions of 2 mM (“Fe-NTA solution (2 mM)”).
Iron nitrilotriacetate complex solution [Fe-NTA solution (20 mM), Fe-NTA solution (2 mM)], and 1×D-PBS (pH 7.2) were mixed at the ratios shown in Tables 3 to 4, the absorbance of the mixture (wavelength 470 nm) was measured by using a spectrophotometer (trade name “NanoDrop ND-1000 Full-spectrum UV/Vis Spectrophotometer”, manufactured by SCRUM Corporation, UV-Vis Module, Measure), and the absorbance of blank ([A] in Tables 3 to 4) was determined. Then, 158 μl of Fe-Ser•Na (50 mM) was added to the mixture, the absorbance (wavelength 470 nm) was measured as described above, and the absorbance after the addition of the iron chelating agent according to Examples ([B] in Tables 3 to 4) was determined.

[3] = Fe-NTA solution (2 mM) 0 μl + 1xD-PBS 160 μl + Fe-Ser•Na (50 mM) 158 μl
[4] = Fe-NTA solution (2 mM) 10 μl + 1xD-PBS 150 μl + Fe-Ser•Na (50 mM) 158 μl
[5] = Fe-NTA solution (2 mM) 20 μl + 1xD-PBS 140 μl + Fe-Ser•Na (50 mM) 158 μl
[6] = Fe-NTA solution (2 mM) 40 μl + 1xD-PBS 120 μl + Fe-Ser•Na (50 mM) 158 μl
[7] = Fe-NTA solution (2 mM) 80 μl + 1xD-PBS 80 μl + Fe-Ser•Na (50 mM) 158 μl
[8] = Fe-NTA solution (2 mM) 160 μl + 1xD-PBS 0 μl + Fe-Ser•Na (50 mM) 158 μl
[9] = Fe-NTA solution (20 mM) 0 μl + 1xD-PBS 160 μl + Fe-Ser•Na (50 mM) 158 μl
[10] = Fe-NTA solution (20 mM) 10 μl + 1xD-PBS 150 μl + Fe-Ser•Na (50 mM) 158 μl
[11] = Fe-NTA solution (20 mM) 20 μl + 1xD-PBS 140 μl + Fe-Ser•Na (50 mM) 158 μl
[12] = Fe-NTA solution (20 mM) 40 μl + 1xD-PBS 120 μl + Fe-Ser•Na (50 mM) 158 μl
[13] = Fe-NTA solution (20 mM) 80 μl + 1xD-PBS 80 μl + Fe-Ser•Na (50 mM) 158 μl
[14] = Fe-NTA solution (20 mM) 160 μl + 1xD-PBS 0 μl + Fe-Ser•Na (50 mM) 158 μl

## O=C(O)C(CO)NCc1ccccc1O (stereo not shown) [Example 1, o-[(1-carboxy-2-hydroxyethyl)-amino-methyl]-phenol]
[1]; Fe-NTA solution (2 mM) added to chelating agent MOPS solution (MOPS, acetonitrile)
  colour of the solution after mixing: dark brown-colored
[1]; Fe-NTA solution (20 mM) added to chelating agent MOPS solution (MOPS, acetonitrile)
  colour of the solution after mixing: dark brown-colored
[2]; [3]
  [B] absorbance after addition of iron chelating agent: 0.011
  [B]-[A]: 0.007
[2]; [4]
  [B] absorbance after addition of iron chelating agent: 0.017
  [B]-[A]: 0.014
[2]; [5]
  [B] absorbance after addition of iron chelating agent: 0.026
  [B]-[A]: 0.023
[2]; [6]
  [B] absorbance after addition of iron chelating agent: 0.041
  [B]-[A]: 0.036
[2]; [7]
  [B] absorbance after addition of iron chelating agent: 0.075
  [B]-[A]: 0.071
[2]; [8]
  [B] absorbance after addition of iron chelating agent: 0.135
  [B]-[A]: 0.125
[2]; [9]
  [B] absorbance after addition of iron chelating agent: 0.008
  [B]-[A]: 0.005
[2]; [10]
  [B] absorbance after addition of iron chelating agent: 0.081
  [B]-[A]: 0.077
[2]; [11]
  [B] absorbance after addition of iron chelating agent: 0.163
  [B]-[A]: 0.153
[2]; [12]
  [B] absorbance after addition of iron chelating agent: 0.322
  [B]-[A]: 0.296
[2]; [13]
  [B] absorbance after addition of iron chelating agent: 0.731
  [B]-[A]: 0.676
[2]; [14]
  [B] absorbance after addition of iron chelating agent: 1.244
  [B]-[A]: 1.132
[2]; conclusion from Tables 3 to 4
  capture of iron ions from an iron nitrilotriacetate complex: iron ions can be captured
  chelating ability with iron: has chelating ability with iron
